# Experimental data from patent US20020016346A1, “Method for enhancing outflow of aqueous humor in treatment of glaucoma” (The Regents University of California, a California …, priority 1994, published 2002).
# Experiments:
# TM cell monolayers = assay: Flux of 14C-sucrose across confluent TM cell monolayers on filters; format: cell-based; conditions: 15 minute assay period
# Procedure: To investigate the possibility that alteration of TM intracellular volume results in modulation of trabecular meshwork barrier permeability, we evaluated the flux of ^14C-sucrose across confluent TM cell monolayers grown on permeable filters. Cells were grown to confluence on collagen-coated dual level tissue culture filter inserts placed in covered multiwell cluster plates, as shown schematically in […], wherein lower chamber 2 is formed by suspension of membrane 4 with cells attached into holder 6, which is covered by cover 8. Upper chamber 10 is formed by the space within the holder above the membrane. Growth media (EMEM) volumes of 0.5 and 1.5 ml were used for upper and lower chambers, respectively, as previously described (Kajimura, et al., FASEB J, 8:A1045, 1994) for evaluation of endothelial cell monolayers and for evaluation of water permeability of TM cell monolayers (Perkins, et al., Invest. Ophthalmol. Vis. Sci., 29:1836-1846, 1988). One insert was placed in each of 12 wells in a cluster plate. Permeability was assessed as the flux of ^14C-sucrose across the TM cell monolayers. […] Sucrose content of the samples was determined by […] methods. The amount of solute was calculated from the radioactivity present in the sample and the specific activity (cpm/μmol) of the ^14C-sucrose.
# bovine TM cells = assay: TM cell volume by electronic cell sizing (Coulter Counter); format: cell-based
# Procedure: By the second method, TM cells were trypsinized briefly in Ca-free medium, then rinsed with medium containing trypsin inhibitor and suspended in Hepes MEM. Mean cell volumes were then analyzed by electronic cell sizing on a Coulter Counter™ […] (Model ZM), with channelizer (C256), using at least 50,000 cells per data point and an orifice diameter of 140 μm. Aliquots of suspended cells were diluted into Hepes MEM containing the tonicity and/or agents to be evaluated. Mean cell volumes of each suspension aliquot were followed over time, starting at 1 minute after addition of cells to the assay media. Cell suspensions were maintained at 37° C. throughout the assay period. Absolute volumes (picoliters/cell) were calculated from distribution curves of cell diameter, using a standard curve generated by polystyrene latex beads of known diameter.
# In order to determine whether the Na—K—Cl cotransporter of TM cells may play a role in restoration of intracellular volume following hypertonicity-induced cell shrinkage, we evaluated the effect of hypertonicity on TM cell volume and Na^+—K^+—2Cl^− cotransport activity. […] The intracellular volume of the cells then increased over a slower time course, with volume recovering to approximately 84% by 33 minutes as shown in FIG. 3A.
smiles,measurement,setting,value
CCCCNc1cc(C(=O)O)cc(S(N)(=O)=O)c1Oc1ccccc1 [bumetanide],monolayer permeability to sucrose,TM cell monolayers,increased
same,intracellular volume,"bovine TM cells; 30 minute exposure, bumetanide 10 μM, ethacrynic acid 1 mM, versus Hepes MEM control",significant reduction
same,volume recovery after hypertonicity-induced cell shrinkage,bovine TM cells; hypertonic (400 mOsm) medium containing bumetanide,greatly attenuated
